Results reported in US20150105252A1, “SUBSTITUTED PYRAZOLES AS HERBICIDES” (E I DU PONT DE NEMOURS AND COMPANY, priority 2013, published 2015).

Legend:
pigweed [1] = experiment: Test A postemergence; format: in vivo, Amaranthus retroflexus
Description: (§1) Seeds of plant species selected from barnyardgrass (Echinochloa crus-galli), kochia (Kochia scoparia), common ragweed (Ambrosia elation), Italian ryegrass (Lolium multiflorum), crabgrass, large (large crabgrass, Digitaria sanguinalis), foxtail, giant (giant foxtail, Setaria faberii), morningglory (Ipomoea spp.), pigweed (redroot pigweed, Amaranthus retroflexus), velvetleaf (Abutilon theophrasti), wheat (Triticum aestivum), and corn (Zea mays) were planted into a blend of loam soil and sand and treated preemergence with a directed soil spray using test chemicals formulated in a non-phytotoxic solvent mixture which included a surfactant.
(§2) At the same time, plants selected from these crop and weed species and also blackgrass (Alopecurus myosuroides), and galium (catchweed bedstraw, Galium aparine) were planted in pots containing the same blend of loam soil and sand and treated with postemergence applications of test chemicals formulated in the same manner. Plants ranged in height from 2 to 10 cm and were in the one- to two-leaf stage for the postemergence treatment. Treated plants and untreated controls were maintained in a greenhouse for approximately 10 days, after which time all treated plants were compared to untreated controls and visually evaluated for injury. Plant response ratings, summarized in Table A, are based on a 0 to 100 scale where 0 is no effect and 100 is complete control. A dash (-) response means no test result.

velvetleaf [2] = experiment: Test A postemergence; format: in vivo, Abutilon theophrasti
Description: as §1, §2

barnyardgrass [3] = experiment: Test A postemergence; format: in vivo, Echinochloa crus-galli; details: Postemergence
Description: as §1, §2

corn [4] = experiment: Test A postemergence; format: in vivo, Zea mays
Description: as §1, §2

corn [5] = experiment: Test A preemergence; format: in vivo, Zea mays; details: 0 to 100 scale
Description: as §1, §2

wheat [6] = experiment: Test A postemergence; format: in vivo, Triticum aestivum
Description: as §1, §2

velvetleaf [7] = experiment: Test A preemergence; format: in vivo, Abutilon theophrasti; details: 0 to 100 scale
Description: as §1, §2

barnyardgrass [8] = experiment: Test A preemergence; format: in vivo, Echinochloa crus-galli; details: 0 to 100 scale
Description: as §1, §2

wheat [9] = experiment: Test A preemergence; format: in vivo, Triticum aestivum
Description: as §1, §2

foxtail, giant [10] = experiment: Test A postemergence; format: in vivo, Setaria faberii
Description: as §1, §2

crabgrass, large [11] = experiment: Test A preemergence; format: in vivo, Digitaria sanguinalis; details: Preemergence, 0 to 100 scale, 0 no effect, 100 complete control
Description: as §1, §2

crabgrass, large [12] = experiment: Test A postemergence; format: in vivo, Digitaria sanguinalis
Description: as §1, §2

pigweed [13] = experiment: Test A preemergence; format: in vivo, Amaranthus retroflexus; details: 0 to 100 scale
Description: as §1, §2

morningglory [14] = experiment: Test A postemergence; format: in vivo, Ipomoea spp.
Description: as §1, §2

foxtail, giant [15] = experiment: Test A preemergence; format: in vivo, Setaria faberii; details: 0 to 100 scale
Description: as §1, §2

morningglory [16] = experiment: Test A preemergence; format: in vivo, Ipomoea spp.; details: 0 to 100 scale
Description: as §1, §2

[17] = Postemergence, 1000 g ai/ha, visual rating after approx. 10 days, 0 to 100 scale (0 no effect, 100 complete control)
[18] = 1000 g ai/ha, visual rating after approx. 10 days, 0 to 100 scale (0 no effect, 100 complete control)
[19] = Preemergence, 1000 g ai/ha, 0 no effect, 100 complete control
[20] = Preemergence, 1000 g ai/ha, 0 to 100 scale, 0 no effect, 100 complete control
[21] = preemergence, 500 g ai/ha, visual injury after approx. 10 days, 0 to 100 scale (0 no effect, 100 complete control)
[22] = Postemergence, 500 g ai/ha, visual rating after approx. 10 days, 0 to 100 scale (0 no effect, 100 complete control)
[23] = postemergence, 125 g ai/ha, about 10 days, visual rating on 0 to 100 scale (0 no effect, 100 complete control)
[24] = Preemergence, 500 g ai/ha, 0 no effect, 100 complete control
[25] = preemergence, 125 g ai/ha, visual injury, approx. 10 days
[26] = Preemergence, 2000 g ai/ha, 0 no effect, 100 complete control
[27] = Postemergence, 125 g ai/ha, 0 to 100 scale, 0 no effect, 100 complete control

CCc1cc(C(=O)NC(C)C)nn1Cc1cccc(C(F)(F)F)c1 [Compound 47]
Pigweed plant response rating (pigweed [1]; [17]): 70 | Velvetleaf plant response rating (velvetleaf [2]; [17]): 60 | Barnyardgrass plant response rating (barnyardgrass [3]; [18]): 60 | Corn plant response rating (corn [4]; [17]): 40 | Corn plant response rating (corn [5]; [19]): 40 | Wheat plant response rating (wheat [6]; [17]): 40 | Velvetleaf plant response rating (velvetleaf [7]; [19]): 60 | Barnyardgrass plant response rating (barnyardgrass [8]; [19]): 80 | Wheat plant response rating (wheat [9]; [20]): 50 | Foxtail, Giant plant response rating (foxtail, giant [10]; [17]): 80 | Crabgrass, Large plant response rating (crabgrass, large [11]; 1000 g ai/ha): 100 | Crabgrass, Large plant response rating (crabgrass, large [12]; [17]): 70 | Pigweed plant response rating (pigweed [13]; [19]): 80 | Morningglory plant response rating (morningglory [14]; [17]): 100 | Foxtail, Giant plant response rating (foxtail, giant [15]; [19]): 100 | Morningglory plant response rating (morningglory [16]; [19]): 90

CCc1cc(C(=O)NC(C)(C)C)nn1Cc1cccc(OC(F)(F)F)c1 [Compound 59]
Pigweed plant response rating (pigweed [1]; [17]): 50 | Velvetleaf plant response rating (velvetleaf [2]; [17]): 10 | Barnyardgrass plant response rating (barnyardgrass [3]; [18]): 10 | Corn plant response rating (corn [4]; [17]): 10 | Corn plant response rating (corn [5]; [19]): 0 | Wheat plant response rating (wheat [6]; [17]): 0 | Velvetleaf plant response rating (velvetleaf [7]; [19]): 0 | Barnyardgrass plant response rating (barnyardgrass [8]; [19]): 0 | Wheat plant response rating (wheat [9]; [20]): 0 | Wheat plant response rating (wheat [9]; [21]): 10 | Foxtail, Giant plant response rating (foxtail, giant [10]; [17]): 20 | Crabgrass, Large plant response rating (crabgrass, large [11]; 1000 g ai/ha): 10 | Crabgrass, Large plant response rating (crabgrass, large [12]; [17]): 10 | Pigweed plant response rating (pigweed [13]; [19]): 0 | Morningglory plant response rating (morningglory [14]; [17]): 50 | Foxtail, Giant plant response rating (foxtail, giant [15]; [19]): 10 | Morningglory plant response rating (morningglory [16]; [19]): 0

CCc1cc(C(=O)NCC(C)C)nn1Cc1cccc(OC(F)(F)F)c1 [Compound 60]
Pigweed plant response rating (pigweed [1]; [17]): 60 | Velvetleaf plant response rating (velvetleaf [2]; [17]): 60 | Barnyardgrass plant response rating (barnyardgrass [3]; [18]): 20 | Corn plant response rating (corn [4]; [17]): 30 | Corn plant response rating (corn [5]; [19]): 0 | Wheat plant response rating (wheat [6]; [17]): 20 | Velvetleaf plant response rating (velvetleaf [7]; [19]): 0 | Barnyardgrass plant response rating (barnyardgrass [8]; [19]): 30 | Wheat plant response rating (wheat [9]; [20]): 0 | Wheat plant response rating (wheat [9]; [21]): 0 | Foxtail, Giant plant response rating (foxtail, giant [10]; [17]): 40 | Crabgrass, Large plant response rating (crabgrass, large [11]; 1000 g ai/ha): 90 | Crabgrass, Large plant response rating (crabgrass, large [12]; [17]): 30 | Pigweed plant response rating (pigweed [13]; [19]): 90 | Morningglory plant response rating (morningglory [14]; [17]): 100 | Foxtail, Giant plant response rating (foxtail, giant [15]; [19]): 100 | Morningglory plant response rating (morningglory [16]; [19]): 20

Cc1cc(C(=O)NCC(F)(F)F)nn1Cc1cccc(C(F)(F)F)c1 [Compound 7]
Pigweed plant response rating (pigweed [1]; [22]): 50 | Pigweed plant response rating (pigweed [1]; [23]): 30 | Velvetleaf plant response rating (velvetleaf [2]; [22]): 40 | Velvetleaf plant response rating (velvetleaf [2]; [23]): 30 | Barnyardgrass plant response rating (barnyardgrass [3]; 125 g ai/ha, 0 to 100 scale, 0 no effect, 100 complete control): 0 | Barnyardgrass plant response rating (barnyardgrass [3]; 500 g ai/ha, visual rating after approx. 10 days, 0 to 100 scale (0 no effect, 100 complete control)): 30 | Corn plant response rating (corn [4]; [22]): 30 | Corn plant response rating (corn [4]; [23]): 10 | Corn plant response rating (corn [5]; [24]): 10 | Corn plant response rating (corn [5]; [25]): 0 | Wheat plant response rating (wheat [6]; [22]): 20 | Wheat plant response rating (wheat [6]; [23]): 0 | Velvetleaf plant response rating (velvetleaf [7]; [24]): 10 | Velvetleaf plant response rating (velvetleaf [7]; [25]): 0 | Barnyardgrass plant response rating (barnyardgrass [8]; [24]): 40 | Barnyardgrass plant response rating (barnyardgrass [8]; [25]): 0 | Wheat plant response rating (wheat [9]; preemergence, 125 g ai/ha, visual injury, 0 to 100 scale, approx. 10 days): 0 | Foxtail, Giant plant response rating (foxtail, giant [10]; [22]): 30 | Foxtail, Giant plant response rating (foxtail, giant [10]; [23]): 0 | Crabgrass, Large plant response rating (crabgrass, large [11]; 500 g ai/ha): 90 | Crabgrass, Large plant response rating (crabgrass, large [12]; [22]): 40 | Crabgrass, Large plant response rating (crabgrass, large [12]; [23]): 10 | Pigweed plant response rating (pigweed [13]; [24]): 90 | Pigweed plant response rating (pigweed [13]; [25]): 0 | Morningglory plant response rating (morningglory [14]; [22]): 100 | Morningglory plant response rating (morningglory [14]; [23]): 40 | Foxtail, Giant plant response rating (foxtail, giant [15]; [24]): 70 | Foxtail, Giant plant response rating (foxtail, giant [15]; [25]): 10 | Morningglory plant response rating (morningglory [16]; [24]): 40 | Morningglory plant response rating (morningglory [16]; [25]): 0

CCc1cc(C(=O)NC2CC2)nn1Cc1cccc(OC(F)(F)F)c1 [Compound 26]
Pigweed plant response rating (pigweed [1]; [17]): 100 | Velvetleaf plant response rating (velvetleaf [2]; [17]): 100 | Barnyardgrass plant response rating (barnyardgrass [3]; [18]): 70 | Corn plant response rating (corn [4]; [17]): 70 | Corn plant response rating (corn [5]; [19]): 40 | Wheat plant response rating (wheat [6]; [17]): 50 | Velvetleaf plant response rating (velvetleaf [7]; [19]): 100 | Barnyardgrass plant response rating (barnyardgrass [8]; [19]): 80 | Wheat plant response rating (wheat [9]; [20]): 40 | Foxtail, Giant plant response rating (foxtail, giant [10]; [17]): 100 | Crabgrass, Large plant response rating (crabgrass, large [11]; 1000 g ai/ha): 100 | Crabgrass, Large plant response rating (crabgrass, large [12]; [17]): 90 | Pigweed plant response rating (pigweed [13]; [19]): 100 | Morningglory plant response rating (morningglory [14]; [17]): 100 | Foxtail, Giant plant response rating (foxtail, giant [15]; [19]): 100 | Morningglory plant response rating (morningglory [16]; [19]): 90

Cc1cc(C(=O)NC(C)(C)C)nn1Cc1cccc(C(F)(F)F)c1 [Compound 1]
Velvetleaf plant response rating (velvetleaf [2]; [17]): 30 | Barnyardgrass plant response rating (barnyardgrass [3]; [18]): 30 | Velvetleaf plant response rating (velvetleaf [7]; [26]): 0 | Barnyardgrass plant response rating (barnyardgrass [8]; [26]): 10 | Crabgrass, Large plant response rating (crabgrass, large [11]; 2000 g ai/ha): 10 | Crabgrass, Large plant response rating (crabgrass, large [12]; [17]): 30 | Morningglory plant response rating (morningglory [14]; [17]): 20 | Morningglory plant response rating (morningglory [16]; [26]): 0

O=C(NC1CC1)c1cc(CCCl)n(Cc2ccnc(C(F)(F)F)c2)n1 [Compound 194]
Pigweed plant response rating (pigweed [1]; [27]): 50 | Velvetleaf plant response rating (velvetleaf [2]; [27]): 60 | Wheat plant response rating (wheat [6]; [27]): 0 | Morningglory plant response rating (morningglory [14]; [27]): 50

Cc1cc(C(=O)NC2CC2)nn1Cc1cccc(C(F)(F)F)c1 [Compound 2]
Velvetleaf plant response rating (velvetleaf [2]; [17]): 70 | Barnyardgrass plant response rating (barnyardgrass [3]; [18]): 50 | Velvetleaf plant response rating (velvetleaf [7]; [26]): 100 | Barnyardgrass plant response rating (barnyardgrass [8]; [26]): 90 | Crabgrass, Large plant response rating (crabgrass, large [11]; 2000 g ai/ha): 100 | Crabgrass, Large plant response rating (crabgrass, large [12]; [17]): 50 | Morningglory plant response rating (morningglory [14]; [17]): 80 | Morningglory plant response rating (morningglory [16]; [26]): 100
